Measurements: publication PMC8296708, “The pan HDAC inhibitor Givinostat improves muscle function and histological parameters in two Duchenne muscular dystrophy murine models expressing different haplotypes of the LTBP4 gene” (Skeletal Muscle, 2021)

How the values were obtained:
Format in all cases: in vivo, mouse (D2.B10-Dmd^mdx/J)
D2.B10 mice [1] = test: Grip strength test (FNmax) in D2.B10 mice; conditions: for FNmax from day 62 onwards: Givinostat 5, 10 and 37.5 mg/kg, vs vehicle; for FNmax from day 62 onwards / FNmax from day 21 until days 49-62: prednisone 1 mg/kg i.p. weekly; for FNmax from day 21 until days 49-62: Givinostat 10 and 37.5 mg/kg
Source text: (§1) For the efficacy studies, C57BL/10 J (Stock No: 000665) wild type (wt) and C57BL/10ScSn-Dmd^mdx/J (Stock No: 001801) 7–8-week-old male mice, DBA/2J wt (Stock No: 000671), and D2.B10-Dmd^mdx/J (Stock No: 013141) 6–7-week-old male mice were purchased from The Jackson Laboratories (Bar Harbor, Maine, USA). After 5 days of acclimatization in the animal facility, mice were randomized into different treatment groups based on their BW. C57BL/10J wt mice were assigned to the naive wt group (healthy mice that received no treatment, but were subjected to functional tests), whereas mdx mice were assigned to the following groups (9 mice/group; 4–5 mice/cage): naive mdx (mice that received no treatment, but were subjected to functional tests), vehicle (0.5% methylcellulose, p.o.), and Givinostat (0.1, 0.3, 1, 5, 10, 25, and 37.5 mg/kg, p.o.). DBA/2J mice were assigned to the naive wt group (healthy mice that received no treatment, but were subjected to functional tests), whereas D2.B10 mice were assigned to the following groups (12–13 mice/group; 4–5 mice/gage): vehicle (filtered tap water, p.o.), Givinostat (1, 5, 10, and 37.5 mg/kg, p.o.), prednisone 1 mg/kg, and Deflazacort 1 mg/kg (i.p.).
(§2) In the efficacy studies, Givinostat powder (ITF2357) was suspended in 0.5% methylcellulose (Sigma-Aldrich) and administered p.o. (by gavage) at the doses of 0.1, 0.3, 1, 5, 10, 25, and 37.5 mg/kg qdx5x15weeks (administration volume per mouse: 10 mL/kg) in mdx mice (see Additional Figure 1A). Vehicle-treated mdx mice received 0.5% methylcellulose suspension. Givinostat suspension was stored at + 4 °C, and it was freshly prepared every 7 days. Probably due to the impairment of their tongue and masticatory muscles, the oral gavage procedure turned out to be difficult to perform, and chronic treatment of D2.B10 mice by this route was considered to bear a high risk of damaging the esophagus. For this reason, Givinostat was administered in the drinking water. Givinostat was dissolved in filtered tap water and was administered in drinking water (throughout 24 h) for 105 days at the dose of 1, 5, 10, and 37.5 mg/kg/day, according to a daily estimate of water consumption of 4 ml/mouse/day. Water consumption was weekly monitored throughout the entire duration of the study weighing the bottle of each cage (maximum 4 mice per cage). Prednisone and Deflazacort powder (Sigma-Aldrich) was dissolved in 2% DMSO (Sigma-Aldrich) and diluted in sterile saline on injection days. Both drugs were administered weekly (for 15 weeks) by i.p. injection at the dose of 1 mg/kg in a volume of 10 mL/kg. Givinostat and steroid treatments started on days 7 and 9 of the experimental plan, respectively (see Additional Figure 1B). All mice were monitored daily and tolerability was evaluated on the basis of BW and clinical signs.
In both efficacy studies, the effectiveness of treatments was evaluated every week by measuring the forelimb strength by a grip strength meter (Ugo Basile SRL, Italy). BW of mdx (see Additional Figure 2) and D2.B10 mice (see Additional Figure 3) was also measured in order to normalize the absolute grip strength of each mouse with respect to its BW. The protocol provides 5 measurements for each mouse (the procedure was compliant with the standard operating procedures of TREAT–NMD Neuromuscular Network). The highest recorded value of maximal normalized strength (FNmax) obtained for each mouse at all the time points (from T0 to T15) was used for further analysis.
After taking baseline readings for behavioral assays (FNmax and distance run by the animals), mice were re-randomized based on these two parameters, also considering the previous randomization performed on their BW.
The grip strength and run to exhaustion tests were performed during the light-cycle phase, in the early hours of the morning (8:00–11:30 am). […]

D2.B10 mice [2] = test: Treadmill run to exhaustion test in D2.B10 mice; conditions: for Effect on distance run, significance: Deflazacort, prednisone 1 mg/kg, lower doses of Givinostat
Source text: as §1, §2
Run to exhaustion performance of mdx and D2.B10 mice was evaluated every 14 or 21 days, respectively, using a treadmill apparatus (Ugo Basile SRL, Italy). The exhaustion protocol consisted in an initially horizontal running at 5 m/min for 5 min after which the speed was increased 1 m/min every minute until exhaustion (the procedure was compliant with the standard operating procedures of TREAT–NMD Neuromuscular Network). […]
After taking baseline readings for behavioral assays (FNmax and distance run by the animals), mice were re-randomized based on these two parameters, also considering the previous randomization performed on their BW. […]

D2.B10 mice [3] = test: Muscle fibrosis by Sirius Red staining in D2.B10 mice; conditions: for Reduction of fibrosis in DIA: T8; for Reduction of fibrosis in TA: T8, Givinostat 37.5 mg/kg, steroids 1 mg/kg, vs vehicle; for Effect on fibrosis in GAS: T16; for Efficacy on fibrosis in DIA: T16, Givinostat 37.5 mg/kg, prednisone
Source text: Tibialis anterior (TA), gastrocnemius (GAS), DIA, and heart were collected from mice maintained under isoflurane anesthesia and sacrificed by cervical dislocation. These muscles were collected from C57BL/10J wt and mdx (5 mice/group) at the end of treatments and from DBA/2J wt and D2.B10 mice (5 mice/group) at two different time points to be examined by a pathologist (for more details see Additional Table 1). Due to the results obtained by the functional tests, muscles from only some treatment groups were analyzed in both DMD models (see Additional Table 1). All the collected muscles were fixed in 10% buffered formalin solution (Bio-optica, Milan, Italy) at + 4 °C for at least 48 h. After fixation, muscular samples were transversely trimmed, caged, and paraffin embedded overnight with an Automated Vacuum Tissue Processor Floor (ETP, Histo-Line Laboratories) and included in paraffin blocks. Serial transverse cross-sections (4 μm thick) were cut with a microtome (Leica RM 2255), collected onto uncoated glass slides, and stained using a standard protocol for hematoxylin and eosin (Mayer hematoxylin & Aqueous G Eosin 1%, Bio-Optica) and Sirius Red staining (Direct Red 80, Sigma-Aldrich). For the image analysis and quantitation, hematoxylin and eosin- and Sirius Red-stained slides were examined with an Olympus BX51 light microscope. From each sample, 1 to 3 random microphotographs at the magnification of × 4 and × 10 (TA, GAS and heart) or × 20 (DIA) were collected using Image-Pro Plus system. The digital images were processed by a pathologist using ImageJ software (U.S. National Institutes of Health, Bethesda, MD, USA). To quantify CSA and centralized nuclei (%) on hematoxylin and eosin-stained sections, one hundred myofibers were manually measured for each muscle/mouse using a tablet pen (Wacom Intruos) and analyzed by the ImageJ software after a linear calibration of 150 μm. The fibrotic area, corresponding to the area stained in red, was compared to the total area of the tissue section, and the results were expressed as percentage fibrosis. The % of fibrosis of muscles in the different treatment groups was expressed by averaging the three values obtained from each muscle.

| SMILES | Lowest dose with significant effect on FNmax from day 21 to day 104 (D2.B10 mice [1]) [mg/kg] | Effect on FNmax (D2.B10 mice [1]; 1-37.5 mg/kg/day in drinking water) | Time interval of significant FNmax improvement (D2.B10 mice [1]; Deflazacort 1 mg/kg i.p. weekly, Givinostat 1 mg/kg) | FNmax from day 62 onwards (D2.B10 mice [1]) | FNmax from day 21 until days 49-62 (D2.B10 mice [1]) | Difference in FNmax, Givinostat 37.5 mg/kg vs Deflazacort (D2.B10 mice [1]; days 90 and 97, p < 0.05 and p < 0.01) | Dose of maximal efficacy on FNmax (D2.B10 mice [1]; drinking water) [mg/kg] | Significant differences in FNmax, Givinostat 37.5 mg/kg versus prednisone (D2.B10 mice [1]; p < 0.05) | Effect on distance run, significance (D2.B10 mice [2]) | Distance run (D2.B10 mice [2]; Givinostat top dose (37.5 mg/kg), day 105 (vehicle 296 ± 17 m)) [meters] | Time to exhaustion (D2.B10 mice [2]; highest dose, day 105) | Reduction of fibrosis in DIA (D2.B10 mice [3]) | Reduction of fibrosis in TA (D2.B10 mice [3]) | Effect on fibrosis in GAS (D2.B10 mice [3]) | Efficacy on fibrosis in DIA (D2.B10 mice [3]) | Effect of steroid on FNmax in comparison (D2.B10 mice [1]; 1 mg/kg i.p. weekly, all the treatment period) | Effect of steroid on fibrosis, summary (D2.B10 mice [3]; 1 mg/kg i.p. weekly) | Reduction of fibrosis in GAS (D2.B10 mice [3]; T8, vs vehicle) |
| --- | --- | --- | --- | --- | --- | --- | --- | --- | --- | --- | --- | --- | --- | --- | --- | --- | --- | --- |
| CCN(CC)Cc1ccc2cc(COC(=O)Nc3ccc(C(=O)NO)cc3)ccc2c1 [Givinostat] | 10 | dose-dependent | from day 42 to days 90/104 | remained significantly elevated until day 104 | increased the FNmax of D2.B10-treated mice to that of wt healthy mice | a significant difference was also seen | 37.5 | observed only at days 90 and 97 | not statistically significant | 473 ± 22 | significantly prolonged the time to exhaustion | about 33% | about 22% | No significant effect | lost | – | – | – |
| C[C@]12C=CC(=O)C=C1CC[C@@H]1[C@@H]2C(=O)C[C@@]2(C)[C@H]1CC[C@]2(O)C(=O)CO [prednisone] | – | – | – | remained significantly elevated until day 104 | increased the FNmax of D2.B10-treated mice to that of wt healthy mice | – | – | – | not statistically significant | – | – | ~45% | about 22% | No significant effect | lost | comparable to that of Givinostat 5 e 10 mg/kg | significantly reduced fibrosis in TA, GAS, and DIA | about 26% |
